Reference: PubChem BioAssay AID2060886 (Molecular Pharmacology Branch, DTP, NCI, 2025)

System: 653999-131-R-J2-PDC complex spheroids, growth inhibition
Experiment: Anticancer human tumor 653999-131-R-J2-PDC patient-derived lung adenocarcinoma cell line growth inhibition [RAS]
Details: for IC50: curve of first compound; for viability, T/C: stronger effect = lower value; active means viability on the fitted dose curve at most 10% of control; inactive means the rest
How it was run: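 Agents were tested in combination matrices in half-log decrements from a top concentration at or near clinical Cmax (10 microM if undetermined). Targets were multi-cell spheroids of tumour lines plus HUVEC and MSC stromal cells.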
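Further: spheroids exposed to the agents for seven days before the readout.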

CCc1c2c(nc3ccc(O)cc13)-c1cc3c(c(=O)n1C2)COC(=O)[C@]3(O)CC + CCn1c(-c2cccnc2C(C)OC)c2c3cc(ccc31)N1CCOC(CC(NC(=O)C(C(C)C)N(C)C(=O)C3(F)CCN(C(=O)C#CC(C)(C)N(C)C)CC3)C(=O)N3CCCC(N3)C(=O)OCC(C)(C)C2)C1
0.00778 µM: IC50 (second compound 0.0949 µM)
0.0148 µM: IC50 (second compound 0.00949 µM)
inactive: viability, T/C (second compound 0.000949 µM, first compound 0.000949 µM) 92.6% | viability, T/C (second compound 0.000949 µM, first compound 0.003 µM) 84.4% | viability, T/C (second compound 0.000949 µM, first compound 0.00949 µM) 52% | viability, T/C (second compound 0.000949 µM, first compound 0.03 µM) 35.9% | viability, T/C (second compound 0.000949 µM, first compound 0.0949 µM) 30% | viability, T/C (second compound 0.000949 µM, first compound 0.3 µM) 16.7% | viability, T/C (second compound 0.003 µM, first compound 0.000949 µM) 86% | viability, T/C (second compound 0.003 µM, first compound 0.003 µM) 77.3% | viability, T/C (second compound 0.003 µM, first compound 0.00949 µM) 52.8% | viability, T/C (second compound 0.003 µM, first compound 0.03 µM) 35.9% | viability, T/C (second compound 0.003 µM, first compound 0.0949 µM) 28% | viability, T/C (second compound 0.003 µM, first compound 0.3 µM) 20.4% | viability, T/C (second compound 0.00949 µM, first compound 0.000949 µM) 104% | viability, T/C (second compound 0.00949 µM, first compound 0.003 µM) 84.1% | viability, T/C (second compound 0.00949 µM, first compound 0.00949 µM) 55.2% | viability, T/C (second compound 0.00949 µM, first compound 0.03 µM) 37.8% | viability, T/C (second compound 0.00949 µM, first compound 0.0949 µM) 28.7% | viability, T/C (second compound 0.00949 µM, first compound 0.3 µM) 17.3% | viability, T/C (second compound 0.03 µM, first compound 0.000949 µM) 91.8% | viability, T/C (second compound 0.03 µM, first compound 0.003 µM) 75.7% | viability, T/C (second compound 0.03 µM, first compound 0.00949 µM) 51.9% | viability, T/C (second compound 0.03 µM, first compound 0.03 µM) 31.4% | viability, T/C (second compound 0.03 µM, first compound 0.0949 µM) 22.3% | viability, T/C (second compound 0.03 µM, first compound 0.3 µM) 16.3% | viability, T/C (second compound 0.0949 µM, first compound 0.000949 µM) 90.6% | viability, T/C (second compound 0.0949 µM, first compound 0.003 µM) 66.4% | viability, T/C (second compound 0.0949 µM, first compound 0.00949 µM) 47.5% | viability, T/C (second compound 0.0949 µM, first compound 0.03 µM) 29.9% | viability, T/C (second compound 0.0949 µM, first compound 0.0949 µM) 19.3% | viability, T/C (second compound 0.0949 µM, first compound 0.3 µM) 12.4% | viability, T/C (second compound 0.3 µM, first compound 0.000949 µM) 81% | viability, T/C (second compound 0.3 µM, first compound 0.003 µM) 57.8% | viability, T/C (second compound 0.3 µM, first compound 0.00949 µM) 44.9% | viability, T/C (second compound 0.3 µM, first compound 0.03 µM) 26.3% | viability, T/C (second compound 0.3 µM, first compound 0.0949 µM) 17.6% | viability, T/C (second compound 0.3 µM, first compound 0.3 µM) 11.5%
0.0133 µM: IC50 (second compound 0.000949 µM)
0.0106 µM: IC50 (second compound 0.03 µM)
0.0126 µM: IC50 (second compound 0.003 µM)
0.00563 µM: IC50 (second compound 0.3 µM)
